The values that follow are results of earlier work, collected in patent US20060211721A1, “Nutraceutical formulation of a cognitive enhancement system” (priority 2005, published 2006).

For the data set the following is noted: background statement.

With `C/C=C1\[C@H]2C=C(C)C[C@]1(N)c1ccc(=O)[nH]c1C2` [huperzine, Huperzine A], the oral bioavailability result is on record as “high oral bioavailability” and the “penetration through the blood brain barrier” value is listed as “good penetration through the blood brain barrier”.
